# Reference: the supplement of paper PMC8149375
# How the values were obtained:
# Conditions in all cases: treatment: drug alone; 5 days
# 769-P [1] = experiment: GI50, drug alone; higher = less potent
# Method: (§1)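 Primary HTS: 8 RCC cell lines treated with 8 doses (up to 10 uM) of each library drug alone for 5 days; viability read by CellTiter-Glo and normalised to DMSO. GI50 was fitted with XLfit (4-parameter), AUC is the area under the dose-response curve, and minimum viability is the lowest fraction of DMSO viability across doses.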
# 786-O [2] = experiment: GI50, drug alone; higher = less potent
# Method: as §1
# UO-31 [3] = experiment: GI50, drug alone; higher = less potent
# Method: as §1
# ACHN [4] = experiment: GI50, drug alone; higher = less potent
# Method: as §1
# A498 [5] = experiment: GI50, drug alone; higher = less potent
# Method: as §1
# SN12C [6] = experiment: GI50, drug alone; higher = less potent
# Method: as §1
# TK-10 [7] = experiment: GI50, drug alone; higher = less potent
# Method: as §1
# CAKI-1 [8] = experiment: GI50, drug alone; higher = less potent
# Method: as §1
# 769-P [9] = experiment: minimum viability across doses, drug alone, relative to DMSO (fraction); higher = less growth inhibition
# Method: as §1
# 786-O [10] = experiment: as above
# Method: as §1
# UO-31 [11] = experiment: as above
# Method: as §1
# ACHN [12] = experiment: as above
# Method: as §1
# A498 [13] = experiment: as above
# Method: as §1
# SN12C [14] = experiment: as above
# Method: as §1
# TK-10 [15] = experiment: as above
# Method: as §1
# CAKI-1 [16] = experiment: as above
# Method: as §1
# 769-P [17] = experiment: AUC of dose-response viability curve, drug alone (arbitrary (AUC of normalised viability)); higher = less growth inhibition
# Method: as §1
# 786-O [18] = experiment: as above
# Method: as §1
# UO-31 [19] = experiment: as above
# Method: as §1
# ACHN [20] = experiment: as above
# Method: as §1
# A498 [21] = experiment: as above
# Method: as §1
# SN12C [22] = experiment: as above
# Method: as §1
# TK-10 [23] = experiment: as above
# Method: as §1
# CAKI-1 [24] = experiment: as above
# Method: as §1
"GI50, drug alone (786-O [2])","GI50, drug alone (ACHN [4])",Structure (SMILES),"GI50, drug alone (769-P [1])","GI50, drug alone (UO-31 [3])","GI50, drug alone (A498 [5])","GI50, drug alone (SN12C [6])","GI50, drug alone (TK-10 [7])","GI50, drug alone (CAKI-1 [8])",minimum viability across doses (769-P [9]),minimum viability across doses (786-O [10]),minimum viability across doses (UO-31 [11]),minimum viability across doses (ACHN [12]),minimum viability across doses (A498 [13]),minimum viability across doses (SN12C [14]),minimum viability across doses (TK-10 [15]),minimum viability across doses (CAKI-1 [16]),AUC of dose-response viability curve (769-P [17]),AUC of dose-response viability curve (786-O [18]),AUC of dose-response viability curve (UO-31 [19]),AUC of dose-response viability curve (ACHN [20]),AUC of dose-response viability curve (A498 [21]),AUC of dose-response viability curve (SN12C [22]),AUC of dose-response viability curve (TK-10 [23]),AUC of dose-response viability curve (CAKI-1 [24])
> 10 µM,> 10 µM,Cc1ccc(NC(=O)c2ccc(CN3CCN(C)CC3)cc2)cc1Nc1nccc(-c2cccnc2)n1 [Imatinib (Gleevec)],> 10 µM,> 10 µM,> 10 µM,> 10 µM,> 10 µM,> 10 µM,0.858,0.514,1.03,0.802,0.919,0.77,0.829,0.891,3.23,2.36,4.67,3.41,3.83,3.06,3.07,3.35
8.42 µM,> 10 µM,CS(=O)(=O)O.Cc1ccc(NC(=O)c2ccc(CN3CCN(C)CC3)cc2)cc1Nc1nccc(-c2cccnc2)n1 [Imatinib Mesylate],> 10 µM,> 10 µM,> 10 µM,> 10 µM,> 10 µM,> 10 µM,0.898,0.399,1.1,0.855,0.973,0.775,0.861,0.965,3.45,2.83,5.21,3.71,3.89,3.55,3.25,3.61

# The remaining lines, values behind:
Structure (SMILES),"GI50, drug alone (786-O [2])","GI50, drug alone (ACHN [4])","GI50, drug alone (769-P [1])","GI50, drug alone (UO-31 [3])","GI50, drug alone (A498 [5])","GI50, drug alone (SN12C [6])","GI50, drug alone (TK-10 [7])","GI50, drug alone (CAKI-1 [8])",minimum viability across doses (769-P [9]),minimum viability across doses (786-O [10]),minimum viability across doses (UO-31 [11]),minimum viability across doses (ACHN [12]),minimum viability across doses (A498 [13]),minimum viability across doses (SN12C [14]),minimum viability across doses (TK-10 [15]),minimum viability across doses (CAKI-1 [16]),AUC of dose-response viability curve (769-P [17]),AUC of dose-response viability curve (786-O [18]),AUC of dose-response viability curve (UO-31 [19]),AUC of dose-response viability curve (ACHN [20]),AUC of dose-response viability curve (A498 [21]),AUC of dose-response viability curve (SN12C [22]),AUC of dose-response viability curve (TK-10 [23]),AUC of dose-response viability curve (CAKI-1 [24])
CC(C)n1nc(-c2ccc3oc(N)nc3c2)c2c(N)ncnc21 [INK 128],0.00665 µM,0.0152 µM,0.0504 µM,0.0252 µM,0.071 µM,0.039 µM,0.012 µM,0.0344 µM,0.0864,0.00552,0.00678,0.0484,0.104,0.0865,0.0249,0.0368,1.34,0.69,0.778,0.901,1.63,1.27,0.931,1.12
O=C1Nc2ccccc2/C1=C1/Nc2ccccc2C1=O [Indirubin],> 10 µM,> 10 µM,> 10 µM,> 10 µM,> 10 µM,> 10 µM,> 10 µM,> 10 µM,0.811,0.529,0.655,0.778,0.827,0.703,0.635,0.762,3.19,2.32,2.68,2.9,3.26,2.66,2.6,2.94
CCCNC(=O)Nc1ccc(Oc2ncnc3cc(OC)c(OC)cc23)cc1Cl [KRN 633],3.93 µM,> 10 µM,> 10 µM,> 10 µM,> 10 µM,> 10 µM,> 10 µM,> 10 µM,0.861,0.366,0.734,0.742,0.974,0.718,0.664,0.817,3.34,2.11,3.91,2.92,4.07,2.93,2.8,3.24
